In brackets after ≈: the same amount, converted by molar mass.
Legend:
[1] = Aqueous solubility in buffer vs acetonitrile/water (1/1), LC-UV; format: physicochemical; conditions: kinetic from dmso stock, buffer pH 2.2, 24 h shaking, 2.5% DMSO
Experimental: The aqueous solubility of the compounds of the invention is determined by comparing the amount dissolved in buffer to the amount in an acetonitrile/water (1/1) solution. Starting from a 10 mM DMSO stock solution aliquots are diluted with acetonitrile/water (1/1) or buffer, respectively. After 24 h of shaking, the solutions are filtrated and analyzed by LC-UV. The amount dissolved in buffer is compared to the amount in the acetonitrile solution.
Solubility is usually being measured from 0.001 to 0.125 mg/mL at a DMSO concentration of 2.5%. If more than 90% of the compound is dissolved in buffer, the value is marked with “>”.

[2] = molecular target: human GPR40 receptor (Homo sapiens, UniProt O14842); experiment: IP1 accumulation measurements using the IPOne assay system (1321N1 cells stably expressing human GPR40 receptor); format: cell-based; conditions: 1321N1 cells expressing human GPR40, 1 h stimulation at 37° C.
Chain of human GPR40 receptor (O14842 whole entry): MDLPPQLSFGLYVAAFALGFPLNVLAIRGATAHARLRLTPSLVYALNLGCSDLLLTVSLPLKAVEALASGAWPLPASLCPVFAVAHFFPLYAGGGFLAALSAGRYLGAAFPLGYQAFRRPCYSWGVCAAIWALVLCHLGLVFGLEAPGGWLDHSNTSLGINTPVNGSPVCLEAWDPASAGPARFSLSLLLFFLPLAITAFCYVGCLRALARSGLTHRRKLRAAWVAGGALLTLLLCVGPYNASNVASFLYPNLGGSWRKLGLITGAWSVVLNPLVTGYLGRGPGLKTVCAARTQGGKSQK
Experimental: IP1 accumulation measurements using the IPOne assay system—1321N1 cells stably expressing human GPR40 receptor (Euroscreen, Belgium) are seeded 24 h before the assay in white 384-well plates in culture medium containing 10% FCS, 1% Na-Pyruvate and 400 μg/mL G418. IP1 is assayed according to the manufacturer's description (Cisbio Bioassays, France). In brief, the assay is started by substitution of the culture medium by stimulation buffer (Hepes 10 mM, CaCl2 1 mM, MgCl2 0.5 mM, KCl 4.2 mM, NaCl 146 mM, glucose 5.5 mM and LiCl 50 mM, pH 7.4). Cells are stimulated for 1 h at 37° C., 5% CO2 by addition of the compounds that are diluted in stimulation buffer containing LiCl. Assays are stopped by adding HTRF-conjugates (IP1-d2 and Anti-IP1 cryptate Tb) and lysis buffer, provided by the manufacturer. After an incubation time of 1 h at room temperature plates are measured using an EnVision™, Perkin Elmer. The obtained fluorescence ratios at 665/615 […] are then used to calculate the pEC50 values using Assay Explorer 3.3 Software (Accelrys, Inc.) by interpolation using an IP1 reference curve and subsequent sigmoidal curve fitting allowing for a variable hill slope.

[3] = molecular target: T1, cytochrome P450 2C9-isoenzyme (Homo sapiens, UniProt P11712); experiment: Inhibition of CYP-2C9 (hydroxylation of diclofenac, human liver microsomes); format: in vitro ADME; conditions: CYP-2C9, human liver microsomes, diclofenac 10 μM, 37° C.
T1 construct: from tissue; host or cells: human liver microsomes
T1 sequence (P11712 whole entry): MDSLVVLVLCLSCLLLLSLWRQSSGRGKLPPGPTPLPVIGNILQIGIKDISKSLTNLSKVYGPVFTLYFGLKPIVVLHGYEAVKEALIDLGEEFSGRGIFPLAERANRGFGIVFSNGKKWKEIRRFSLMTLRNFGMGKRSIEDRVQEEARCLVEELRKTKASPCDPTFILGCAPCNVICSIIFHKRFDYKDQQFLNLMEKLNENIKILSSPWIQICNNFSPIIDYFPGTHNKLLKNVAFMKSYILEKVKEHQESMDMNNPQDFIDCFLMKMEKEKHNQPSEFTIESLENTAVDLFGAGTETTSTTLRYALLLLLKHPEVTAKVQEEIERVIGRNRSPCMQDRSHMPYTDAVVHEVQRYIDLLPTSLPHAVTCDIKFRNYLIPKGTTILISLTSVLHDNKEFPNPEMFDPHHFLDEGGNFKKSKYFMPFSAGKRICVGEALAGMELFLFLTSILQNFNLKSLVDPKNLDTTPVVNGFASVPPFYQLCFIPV
Experimental: The inhibition of cytochrome P450 2C9-isoenzyme catalyzed hydroxylation of diclofenac by the test compound is assayed at 37° C. with human liver microsomes. All assays are carried out on a robotic system in 96 well plates. The final incubation volume contains TRIS buffer (0.1 M), MgCl2 (5 mM), human liver microsomes (0.1 mg/mL), diclofenac (10 μM) and the test compound at five different concentrations or no compound (high control) in duplicate (e.g., highest concentration 10-50 μM with subsequent serial 1:4 dilutions). Following a short preincubation period, reactions are started with the cofactor (NADPH, 1 mM) and stopped by cooling the incubation down to 8° C. and subsequently by addition of one volume of acetonitrile. An internal standard solution—the stable isotope ^13C6-hydroxydiclofenac—is added after quenching of incubations. Peak area analyte (=metabolite formed) and internal standard is determined by LC-MS/MS. The resulting peak area ratio analyte to internal standard in these incubations is compared to a control activity containing no test compound. Within each of the assay runs, the IC50 of a positive control inhibitor (sulfaphenazole) is determined. Experimental IC50 values are calculated by least square regression according to the following equation: % control activity=(100% control activity/(1+(I/IC50)S))−B with I=inhibitor concentration; S=slope factor; B=background activity (lower plateau of the inhibition curve)
(§1) If the inhibition of the reaction is already >50% at the lowest concentration of the test compound, the IC50 is assigned “<lowest concentration tested” (usually <0.4 μM). If the inhibition of the reaction is still <50% at the highest concentration of the test compound, the IC50 is assigned “>highest concentration tested” (usually >50 μM).

[4] = molecular target: T2, cytochrome P450 2C8-isoenzyme (Homo sapiens, UniProt P10632); experiment: Inhibition of CYP-2C8 (deethylation of amodiaquine, human liver microsomes); format: in vitro ADME; conditions: CYP-2C8, human liver microsomes, amodiaquine 1 μM, 37° C.
T2 construct: from tissue; host or cells: human liver microsomes
T2 sequence (P10632 1-490): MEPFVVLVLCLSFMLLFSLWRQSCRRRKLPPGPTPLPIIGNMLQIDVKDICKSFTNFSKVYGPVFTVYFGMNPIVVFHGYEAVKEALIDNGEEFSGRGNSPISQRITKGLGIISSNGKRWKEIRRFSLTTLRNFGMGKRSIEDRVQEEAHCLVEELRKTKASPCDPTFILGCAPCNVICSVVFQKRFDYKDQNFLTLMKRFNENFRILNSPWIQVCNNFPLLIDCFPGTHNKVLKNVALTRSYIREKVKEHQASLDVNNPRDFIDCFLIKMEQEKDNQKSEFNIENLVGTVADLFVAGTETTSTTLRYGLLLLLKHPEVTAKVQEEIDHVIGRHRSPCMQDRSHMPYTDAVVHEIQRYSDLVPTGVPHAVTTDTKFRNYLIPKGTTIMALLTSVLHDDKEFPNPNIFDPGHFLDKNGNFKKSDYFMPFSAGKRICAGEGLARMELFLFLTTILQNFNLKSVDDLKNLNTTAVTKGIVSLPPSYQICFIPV
Experimental: The inhibition of cytochrome P450 2C8-isoenzyme catalyzed deethylation of amodiaquine by the test compound is assayed at 37° C. with human liver microsomes. All assays are carried out on a robotic system in 96 well plates. The final incubation volume contains TRIS buffer (0.1 M), MgCl2 (5 mM), human liver microsomes (0.05 mg/mL), amodiaquine (1 μM) and the test compound at five different concentrations or no compound (high control) in duplicate (e.g. highest concentration 10-50 μM with subsequent serial 1:4 dilutions). Following a short preincubation period, reactions are started with the cofactor (NADPH, 1 mM) and stopped by cooling the incubation down to 8° C. and subsequently by addition of one volume of acetonitrile. An internal standard solution—the stable isotope d5-desethylamodiaquine—is added after quenching of incubations. Peak area analyte (=metabolite formed) and internal standard is determined by LC-MS/MS. The resulting peak area ratio analyte to internal standard in these incubations is compared to a control activity containing no test compound. Within each of the assay runs, the IC50 of a positive control inhibitor (Montelukast) is determined. Experimental IC50 values are calculated by least square regression according to the following equation: % control activity=(100% control activity/(1+(I/IC50)S))−B with I=inhibitor concentration; S=slope factor; B=background activity (lower plateau of the inhibition curve)
as §1

Compound | solubility at 24 h [1] [µg/mL] | EC50 [2] [µM] | IC50 [3] [µM] | IC50 [4] [µM]
Cc1cc(O[C@H]2CCOC2)cc(C)c1-c1ccc(F)c2c1CC[C@H]2Nc1ccc([C@H]2C[C@@H]2C(=O)O)cn1 [Example 13] | 115 (≈ 229 µM) | 0.027 | > 50 | 49
Cc1cc(-c2nnn(CC(C)(C)O)n2)cc(C)c1-c1ccc(F)c2c1CC[C@H]2Nc1ccc([C@H]2C[C@@H]2C(=O)O)cn1 [Example 14] | 83 (≈ 149 µM) | 0.004 | > 50 | 45
Cc1cc(OCC2CCOC2)cc(C)c1-c1ccc(F)c2c1CC[C@H]2Nc1ccc([C@H]2C[C@@H]2C(=O)O)cn1 (some centres unmarked) [Example 16] | 110 (≈ 213 µM) | 0.011 | > 50 | 46
Cc1cccc(C)c1-c1ccc(F)c2c1CC[C@H]2Nc1ccc([C@H]2C[C@@H]2C(=O)O)cn1 [Example 17] | 65 (≈ 156 µM) | 0.013 | 36 | 34
Cc1cc(-c2nnnn2CC(C)(C)O)cc(C)c1-c1ccc(F)c2c1CC[C@H]2Nc1ccc([C@H]2C[C@@H]2C(=O)O)cn1 [Example 24] | 103 (≈ 185 µM) | 0.318 | > 50 | > 50
Cc1cc(-c2nnn[nH]2)cc(C)c1-c1ccc(F)c2c1CC[C@H]2Nc1ccc([C@H]2C[C@@H]2C(=O)O)cn1 [Example 25] | 67 (≈ 138 µM) | 0.177 | > 50 | 4
Cc1cc(CO)cc(C)c1-c1ccc(F)c2c1CC[C@H]2Nc1ccc([C@H]2C[C@@H]2C(=O)O)cn1 [Example 28] | 87 (≈ 195 µM) | 0.071 | > 50 | > 50
Cc1cc(OCC(C)(C)O)cc(C)c1-c1ccc(F)c2c1CC[C@H]2Nc1ccc([C@H]2C[C@@H]2C(=O)O)cn1 [Example 29] | 111 (≈ 220 µM) | 0.017 | > 50 | > 50
Cc1cc(OCc2ccccc2)cc(C)c1-c1ccc(F)c2c1CC[C@H]2Nc1ccc([C@H]2C[C@@H]2C(=O)O)cn1 [Example 32] | < 1 | 0.035 | 24 | 12
Cc1cc(OCC2(C)COC2)cc(C)c1-c1ccc(F)c2c1CC[C@H]2Nc1ccc([C@H]2C[C@@H]2C(=O)O)cn1 [Example 33] | 103 (≈ 199 µM) | 0.014 | > 50 | 26
Cc1cc(OCC(=O)O)cc(C)c1-c1ccc(F)c2c1CC[C@H]2Nc1ccc([C@H]2C[C@@H]2C(=O)O)cn1 [Example 34] | 73 (≈ 149 µM) | 4.13 | > 50 | > 50
Cc1cc(-c2ccc(=O)n(C)c2)cc(C)c1-c1ccc(F)c2c1CC[C@H]2Nc1ccc([C@H]2C[C@@H]2C(=O)O)cn1 [Example 37] | 113 (≈ 216 µM) | 0.011 | > 50 | 17
N#Cc1cccc(C#N)c1-c1ccc(F)c2c1CC[C@H]2Nc1ccc([C@H]2C[C@@H]2C(=O)O)cn1 [Example 44] | > 158 | 4.13 | > 50 | > 50
Cc1cc(-c2cc(=O)n(C)cn2)cc(C)c1-c1ccc(F)c2c1CC[C@H]2Nc1ccc([C@H]2C[C@@H]2C(=O)O)cn1 [Example 45] | 86 (≈ 164 µM) | 0.005 | > 50 | 24
COc1cc(OC)c(-c2ccc(F)c3c2CC[C@H]3Nc2ccc([C@H]3C[C@@H]3C(=O)O)cn2)c(OC)c1 [Example 48] | > 107 | 0.427 | > 50 | > 50
Cc1ccc(Cl)c(-c2ccc(F)c3c2CC[C@H]3Nc2ccc([C@H]3C[C@@H]3C(=O)O)cn2)c1Cl [Example 51] | 56 (≈ 119 µM) | 0.007 | 17 | 12
COc1cc(OC)c(Cl)c(-c2ccc(F)c3c2CC[C@H]3Nc2ccc([C@H]3C[C@@H]3C(=O)O)cn2)c1Cl [Example 53] | 76 (≈ 147 µM) | 0.013 | 14 | 11
O=C(O)[C@H]1C[C@@H]1c1ccc(N[C@@H]2CCc3c(-c4c(F)cccc4F)ccc(F)c32)nc1 [Example 55] | 73 (≈ 172 µM) | 0.208 | > 50 | > 50
COc1cc(OC)c(F)c(-c2ccc(F)c3c2CC[C@H]3Nc2ccc([C@H]3C[C@@H]3C(=O)O)cn2)c1F [Example 57] | 99 (≈ 204 µM) | 0.107 | 48 | 19
O=C(O)[C@H]1C[C@@H]1c1ccc(N[C@@H]2CCc3c(-c4c(F)cc(OC5CC5)cc4F)ccc(F)c32)nc1 [Example 60] | 68 (≈ 142 µM) | 0.061 | 9 | 25

From patent publication US9617251B2, “Indanylaminopyridylcyclopropanecarboxylic acids, pharmaceutical compositions and uses thereof” (BOEHRINGER INGELHEIM INTERNATIONAL GMBH, priority 2015, dated 2017)
